# What was measured:
# soybean = test: Test B pre/postemergence soybean; assay type: in vivo, Glycine max
# Summary of the method: (§1)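 Test chemicals in a non-phytotoxic solvent mixture with surfactant were sprayed preemergence onto planted seeds and postemergence onto plants 2 to 18 cm tall (1- to 4-leaf stage). After twelve to sixteen days in a greenhouse, injury was visually rated against untreated controls from 0 (no effect) to 10 (complete control).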
# purple nutsedge = test: Test B pre/postemergence purple nutsedge; assay type: in vivo, Cyperus rotundus
# Summary of the method: as §1
# smallflower flatsedge = test: Test B flood test smallflower flatsedge; assay type: in vivo, Cyperus difformis
# Summary of the method: (§2)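 Read-out is a visual response score from 0 (no effect) to 10 (complete control), assigned by comparison with untreated controls. Treatment was applied at the 2-leaf stage, and plants stayed in the greenhouse for twelve to sixteen days before scoring.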
# rape = test: Test B pre/postemergence rape; assay type: in vivo, Brassica napus
# Summary of the method: as §1
# wild oat = test: Test B pre/postemergence wild oat; assay type: in vivo, Avena fatua
# Summary of the method: as §1
# morningglory = test: Test B pre/postemergence morningglory; assay type: in vivo, Ipomoea hederacea
# Summary of the method: as §1
# duck salad = test: Test B flood test duck salad; assay type: in vivo, Heteranthera limosa
# Summary of the method: as §2
# velvetleaf = test: Test B pre/postemergence velvetleaf; assay type: in vivo, Abutilon theophrasti
# Summary of the method: as §1
# giant foxtail = test: Test B pre/postemergence giant foxtail; assay type: in vivo, Setaria faberii
# Summary of the method: as §1
# cocklebur = test: Test B pre/postemergence cocklebur; assay type: in vivo, Xanthium strumarium
# Summary of the method: as §1
# blackgrass = test: Test B pre/postemergence blackgrass; assay type: in vivo, Alopecurus myosuroides
# Summary of the method: as §1
# pigweed = test: Test B pre/postemergence pigweed; assay type: in vivo, Amaranthus retroflexus
# Summary of the method: as §1
# bedstraw = test: Test B pre/postemergence bedstraw; assay type: in vivo, Galium aparine
# Summary of the method: as §1
# wheat = test: Test B pre/postemergence wheat; assay type: in vivo, Triticum aestivum
# Summary of the method: as §1
# bamyardgrass = test: Test B flood test barnyardgrass; assay type: in vivo, Echinochloa crus-galli
# Summary of the method: as §2
# surinam grass = test: Test B pre/postemergence surinam grass; assay type: in vivo, Brachiaria decumbens
# Summary of the method: as §1
# [1] = Postemergence, Rate 31 g/ha, visual rating, scale 0 to 10 (0 no effect, 10 complete control)
# [2] = Preemergence, Rate 62 g/ha, scale of 0 to 10 where 0 is no effect and 10 is complete control
# [3] = Preemergence, Rate 250 g/ha, scale of 0 to 10 where 0 is no effect and 10 is complete control
# [4] = Rate 62 g/ha, Postemergence, scale 0 to 10, 0 no effect, 10 complete control
# [5] = Rate 125 g/ha, Postemergence, scale of 0 to 10 where 0 is no effect and 10 is complete control
# [6] = Rate 250 g/ha, Postemergence, scale of 0 to 10 where 0 is no effect and 10 is complete control
# [7] = Rate 31 g/ha, Pre-emergence section (flood test species), scale 0 to 10
# [8] = Rate 62 g/ha, headed Pre-emergence (flood test species), scale 0 to 10 (0 no effect, 10 complete control)
# [9] = Rate 125 g/ha, Pre-emergence, flood test species, scale 0 to 10 where 0 is no effect and 10 is complete control
# [10] = Rate 250 g/ha, Pre-emergence, flood-test species, scale 0 to 10, 0 is no effect, 10 is complete control
# [11] = Preemergence, Rate 31 g/ha, visual rating, scale 0 to 10 (0 no effect, 10 complete control)
compound,measurement,setting,value
COCC(C)N(C(=O)n1oc(=O)n(-c2ccccc2C)c1=O)c1ccc(F)cc1 (stereo not drawn) [Compound 324],Soybean plant response rating,soybean; [1],0
same,Soybean plant response rating,soybean; [2],0
same,Soybean plant response rating (0 to 10 scale),"soybean; Preemergence, Rate 125 g/ha",0
same,Soybean plant response rating,soybean; [3],0
same,Soybean plant response rating,soybean; [4],0
same,Soybean plant response rating,soybean; [5],1
same,"Plant response rating, Soybean",soybean; [6],1
same,Nutsedge plant response rating,purple nutsedge; [1],0
same,Nutsedge plant response rating,purple nutsedge; [2],0
same,Nutsedge plant response rating (0 to 10 scale),"purple nutsedge; Preemergence, Rate 125 g/ha",0
same,Nutsedge plant response rating,purple nutsedge; [3],0
same,Nutsedge plant response rating,purple nutsedge; [4],0
same,Nutsedge plant response rating,purple nutsedge; [5],0
same,"Plant response rating, Nutsedge",purple nutsedge; [6],0
same,S. Flatsedge plant response rating,smallflower flatsedge; [7],0
same,S. Flatsedge plant response rating,smallflower flatsedge; [8],0
same,S. Flatsedge plant response rating,smallflower flatsedge; [9],0
same,S. Flatsedge plant response rating,smallflower flatsedge; [10],0
same,Rape plant response rating,rape; [1],0
same,Rape plant response rating,rape; [2],0
same,Rape plant response rating (0 to 10 scale),"rape; Preemergence, Rate 125 g/ha",0
same,Rape plant response rating,rape; [3],0
same,Rape plant response rating,rape; [4],0
same,Rape plant response rating,rape; [5],0
same,"Plant response rating, Rape",rape; [6],0
same,Wild oats plant response rating,wild oat; [1],0
same,Wild oats plant response rating,wild oat; [2],0
same,Wild oats plant response rating (0 to 10 scale),"wild oat; Preemergence, Rate 125 g/ha",0
same,Wild oats plant response rating,wild oat; [3],0
same,Wild oats plant response rating,wild oat; [4],0
same,Wild oats plant response rating,wild oat; [5],0
same,"Plant response rating, Wild oats",wild oat; [6],0
same,Morningglory plant response rating,morningglory; [1],0
same,Morningglory plant response rating,morningglory; [2],0
same,Morningglory plant response rating (0 to 10 scale),"morningglory; Preemergence, Rate 125 g/ha",0
same,Morningglory plant response rating,morningglory; [3],0
same,Morningglory plant response rating,morningglory; [4],0
same,Morningglory plant response rating,morningglory; [5],0
same,"Plant response rating, Morningglory",morningglory; [6],0
same,Ducksalad plant response rating,duck salad; [7],0
same,Ducksalad plant response rating,duck salad; [8],0
same,Ducksalad plant response rating,duck salad; [9],0
same,Ducksalad plant response rating,duck salad; [10],0
same,Velvetleaf plant response rating,velvetleaf; [1],0
same,Velvetleaf plant response rating,velvetleaf; [2],0
same,Velvetleaf plant response rating (0 to 10 scale),"velvetleaf; Preemergence, Rate 125 g/ha",0
same,Velvetleaf plant response rating,velvetleaf; [3],0
same,Velvetleaf plant response rating,velvetleaf; [4],0
same,Velvetleaf plant response rating,velvetleaf; [5],0
same,"Plant response rating, Velvetleaf",velvetleaf; [6],0
same,Giant foxtail plant response rating,giant foxtail; [1],0
same,Giant foxtail plant response rating,giant foxtail; [11],0
same,Giant foxtail plant response rating,giant foxtail; [2],0
same,Giant foxtail plant response rating (0 to 10 scale),"giant foxtail; Preemergence, Rate 125 g/ha",0
same,Giant foxtail plant response rating,giant foxtail; [3],0
same,Giant foxtail plant response rating,giant foxtail; [4],0
same,Giant foxtail plant response rating,giant foxtail; [5],0
same,"Plant response rating, Giant foxtail",giant foxtail; [6],0
same,Cocklebur plant response rating,cocklebur; [1],0
same,Cocklebur plant response rating,cocklebur; [11],0
same,Cocklebur plant response rating,cocklebur; [2],0
same,Cocklebur plant response rating (0 to 10 scale),"cocklebur; Preemergence, Rate 125 g/ha",0
same,Cocklebur plant response rating,cocklebur; [3],0
same,Cocklebur plant response rating,cocklebur; [4],0
same,Cocklebur plant response rating,cocklebur; [5],0
same,"Plant response rating, Cocklebur",cocklebur; [6],2
same,Blackgrass plant response rating,blackgrass; [1],0
same,Blackgrass plant response rating,blackgrass; [11],0
same,Blackgrass plant response rating,blackgrass; [2],0
same,Blackgrass plant response rating (0 to 10 scale),"blackgrass; Preemergence, Rate 125 g/ha",0
same,Blackgrass plant response rating,blackgrass; [3],0
same,Blackgrass plant response rating,blackgrass; [4],0
same,Blackgrass plant response rating,blackgrass; [5],0
same,"Plant response rating, Blackgrass",blackgrass; [6],0
same,Redroot pigweed plant response rating,pigweed; [1],0
same,Redroot pigweed plant response rating,pigweed; [2],0
same,Redroot pigweed plant response rating (0 to 10 scale),"pigweed; Preemergence, Rate 125 g/ha",0
same,Redroot pigweed plant response rating,pigweed; [3],0
same,Redroot pigweed plant response rating,pigweed; [4],0
same,Redroot pigweed plant response rating,pigweed; [5],0
same,"Plant response rating, Redroot pigweed",pigweed; [6],0
same,Bedstraw plant response rating,bedstraw; [1],0
same,Bedstraw plant response rating,bedstraw; [11],0
same,Bedstraw plant response rating,bedstraw; [2],0
same,Bedstraw plant response rating (0 to 10 scale),"bedstraw; Preemergence, Rate 125 g/ha",0
same,Bedstraw plant response rating,bedstraw; [3],0
same,Bedstraw plant response rating,bedstraw; [4],0
same,Bedstraw plant response rating,bedstraw; [5],0
same,"Plant response rating, Bedstraw",bedstraw; [6],0
same,Wheat plant response rating,wheat; [1],0
same,Wheat plant response rating,wheat; [2],0
same,Wheat plant response rating (0 to 10 scale),"wheat; Preemergence, Rate 125 g/ha",0
same,Wheat plant response rating,wheat; [3],0
same,Wheat plant response rating,wheat; [4],0
same,Wheat plant response rating,wheat; [5],0
same,"Plant response rating, Wheat",wheat; [6],0
same,Barnyardgrass plant response rating,bamyardgrass; [7],0
same,Barnyardgrass plant response rating,bamyardgrass; [8],0
same,Barnyardgrass plant response rating,bamyardgrass; [9],0
same,Barnyardgrass plant response rating,bamyardgrass; [10],0
same,B. signalgrass plant response rating,surinam grass; [1],0
same,B. signalgrass plant response rating,surinam grass; [11],0
same,B. signalgrass plant response rating,surinam grass; [2],0
same,"B. signalgrass plant response rating (0 to 10 scale, 0 is no effect, 10 is complete control)","surinam grass; Preemergence, Rate 125 g/ha",0
same,B. signalgrass plant response rating,surinam grass; [3],0
same,B. signalgrass plant response rating,surinam grass; [4],0
same,B. signalgrass plant response rating,surinam grass; [5],0
same,"Plant response rating, B. signalgrass",surinam grass; [6],0
